Measured values as given in patent publication US20050148514A1, “Method and composition for treatment of angiogenesis” (priority 2003, published 2005).
Where no end group is shown, it is not given here.

What was measured:
[1] = tested on: total MMP-9, i.e., human active and pro-MMP-9; experiment: Total MMP-9 ELISA (Quantikine) on plasma of prostate cancer patients treated with the drug; assay type: in vivo; details: for MMP-9 level in plasma, D27C1: day 27 of treatment cycle 1; for Maximum Reduction of MMP-9: versus baseline D1C1; for MMP-9 level in plasma, D27C2: day 27 of treatment cycle 2
Description: The reconstituted drug used in the present example is made from a solution containing a 20 mg/mL of PCK3145 derivative (SEQ ID NO.:5 derivative); SEQ ID NO.: 7, in a phosphate buffer at pH 7.4 for dilution in sterile saline (0.9% NaCl, BP) prior to intravenous administration. The solutions is filled into Type 1 glass vials, stoppered with Teflon®-faced butyl stoppers, and sealed with flip-off seals.
The drug was administered to patients characterized as having metastatic adenocarcinoma of the prostate, stage 1V prostatic cancer and as having a metastatic hormone resistant prostatic cancer.
Biological samples were drawn during different time points. Plasma samples were placed on dry ice and stored frozen (approximately −70° C.) and subsequently analyzed for total MM P-9 levels.
MMP-9 assay methodology. An Elisa assay measuring total MMP-9, i.e., human active and pro-MMP-9, (Quantikine®, Cat. No.: DMP900, R&D Systems Inc.) was performed on plasma-heparin samples. Plasma samples have been collected from individuals at day 1 (before treatment) and at day 27 of each treatment cycle.
The Quantikine® MMP-9 immunoassay is a solid phase ELISA designed to measure total MMP-9 (92 kDa pro- and 82 kDa active forms) in serum, plasma, saliva, urine and cell culture supernatants. It is calibrated with CHO-cells expressed recombinant human pro-MMP-9 and the antibodies were raised against the recombinant factor. Both antibodies also recognize recombinant human active MMP-9.
The assay employs the quantitative sandwich enzyme immunoassay technique. A monoclonal antibody specific for MMP-9 has been pre-coated onto a microplate. Standards and samples are added into the wells, and MMP-9 is thus bound by the immobilized antibody. After washing away unbound substances, an enzyme-linked polyclonal antibody specific for MMP-9 is added to the wells. Following a wash to remove unbound antibody-enzyme reagent, a substrate solution is added to the wells and color develops in proportion to the amount of total MMP-9 (pro and/or active) bound in the initial step. The color development is stopped and the intensity of the color is measured.
Results of MMP-9 levels in patient's plasma, before and after one or more treatment cycle with PCK3145 derivative; SEQ ID NO.: 7 are illustrated in Table 2.
Normal values of healthy volunteers were not determined in this study but lizasa et al., has determined that the normal range of plasma MMP-9 concentrations is about 11.4 to 59.4 ng/ml. Based on theses values, patients were sub-divided into two categories; those having normal value of MMP-9 (below 100 μg/L) and those having an elevated level of MMP-9 (higher than 100 μg/L) at baseline (see column identified as D1C1 in Table2).

PDGF receptor (PDGFR) = target: T1, PDGF receptor (PDGFR) (Homo sapiens, UniProt P09619); experiment: PDGF-induced PDGFR phosphorylation in PASMC; assay type: cell-based; details: treatment as for HUVEC
T1 construct: host or cells: PASMC (pulmonary aortic smooth muscle cells)
Description: Cell culture. Human umbilical vein endothelial cells (HUVEC) and pulmonary aortic smooth muscle cells (PASMC) were obtained from Clonetics and maintained in endothelial cell basal medium-2, (EBM-2; Clonetics) and smooth muscle medium-2 (SmGM-2; Clonetics), respectively. Cells were cultured at 37° C. under a humidified atmosphere containing 5% CO2. For experimental purposes, cells were plated in 8 100-mm plastic dishes at 5,000 cells/cm^2 and were grown to confluence before overnight serum starvation. Cells were treated with vehicle or with a PCK3145 derivative diluted in 0.1 N NaOH, and stimulated with 50 ng/ml VEGF, PDGF or with 1 μM S1P.
Immunoprecipitation and immunoblotting procedures. After treatment, cells were washed once with phosphate-buffered saline (PBS) containing 1 mM sodium orthovanadate and were incubated in the same medium for 1 h at 4° C. The cells were solubilized on ice in lysis buffer (150 mM NaCl, 10 mM Tris-HCl, pH 7.4, 1 mM EDTA, 1 mM EGTA, 0.5% Nonidet P-40, 1% Triton X-100) containing 1 mM sodium orthovanadate. The cells were then scraped from the culture dishes and the resulting lysates were clarified by centrifugation at 10,000 g for 10 min. Protein concentrations were determined using the micro bicinchoninic acid method. For immunoprecipitation studies, lysates were clarified by a 1 h incubation at 4° C. with a mixture of Protein A/Protein G Sepharose beads. […]

T1 sequence (P09619 33-1106): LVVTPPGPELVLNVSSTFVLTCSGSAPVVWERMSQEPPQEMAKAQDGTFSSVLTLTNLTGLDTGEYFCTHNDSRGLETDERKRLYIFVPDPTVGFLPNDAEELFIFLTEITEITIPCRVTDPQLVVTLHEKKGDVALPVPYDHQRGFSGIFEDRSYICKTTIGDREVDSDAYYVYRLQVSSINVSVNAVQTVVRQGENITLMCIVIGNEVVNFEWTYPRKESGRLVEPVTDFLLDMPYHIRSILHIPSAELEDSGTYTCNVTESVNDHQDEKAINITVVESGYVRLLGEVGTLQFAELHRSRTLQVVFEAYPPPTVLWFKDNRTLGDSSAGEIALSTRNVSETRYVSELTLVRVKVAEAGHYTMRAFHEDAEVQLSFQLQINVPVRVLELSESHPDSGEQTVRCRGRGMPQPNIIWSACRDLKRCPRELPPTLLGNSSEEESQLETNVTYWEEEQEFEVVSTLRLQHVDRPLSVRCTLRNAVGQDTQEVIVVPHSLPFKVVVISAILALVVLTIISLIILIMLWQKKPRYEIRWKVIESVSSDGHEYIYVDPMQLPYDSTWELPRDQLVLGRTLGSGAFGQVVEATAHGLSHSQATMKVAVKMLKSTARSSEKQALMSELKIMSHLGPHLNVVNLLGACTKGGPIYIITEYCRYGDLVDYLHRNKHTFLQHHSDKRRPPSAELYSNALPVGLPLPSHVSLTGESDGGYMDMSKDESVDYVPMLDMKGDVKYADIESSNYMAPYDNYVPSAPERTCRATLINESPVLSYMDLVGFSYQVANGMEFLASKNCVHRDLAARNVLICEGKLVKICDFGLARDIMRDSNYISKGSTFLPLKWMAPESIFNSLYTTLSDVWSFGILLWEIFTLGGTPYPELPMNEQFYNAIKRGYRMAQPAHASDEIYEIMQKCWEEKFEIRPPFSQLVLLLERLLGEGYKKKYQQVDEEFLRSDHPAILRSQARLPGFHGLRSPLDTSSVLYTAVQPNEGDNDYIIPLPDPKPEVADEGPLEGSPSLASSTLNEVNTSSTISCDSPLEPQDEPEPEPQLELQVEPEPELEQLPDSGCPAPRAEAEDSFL

Question: For “EWQTDNCETCTCYET (cysteine pairing not given here)”, which “change in MMP-9 levels compared to baseline” value (from here on “change in MMP-9 levels”) ([1]; elevated MMP-9 category (patients A, B, C and D), each patient after one cycle of treatment) is on record?
Answer: Its value is “significant decrease”.

Question: What about the “change in MMP-9 levels” value ([1]; normal value MMP-9 category (patients E, F, G, H and I), after one cycle of treatment) of the same sequence?
Answer: The value was “no significant decrease”.

Question: And the “decrease in MMP-9 levels compared to baseline levels” value ([1]; patient A, after one cycle of treatment)?
Answer: The value was “up to 89%”.

Question: And the “MMP-9 level in plasma, D27C1” value ([1]; patient A, elevated MMP-9 (baseline D1C1 424))?
Answer: The value was 47.3 µg/L.

Question: And the “Maximum Reduction of MMP-9” value ([1]; patient A)?
Answer: Its value is 89%.

Question: What about the “decrease in MMP-9” value ([1]; patient B, after cycle 1) of the same sequence?
Answer: Its value is 41%.

Question: And the “MMP-9 level in plasma, D27C1” value ([1]; patient B, elevated MMP-9 (baseline D1C1 156.5))?
Answer: Its value is 91.6 µg/L.

Question: And the “reduction of baseline level of MMP-9” value ([1]; patient B, treatment cycle 2)?
Answer: The value was 64%.

Question: And the “reduction of baseline level of MMP-9” value ([1]; patient B, treatment cycle 3)?
Answer: The value was 65%.

Question: And the “reduction of baseline level of MMP-9” value ([1]; patient B, treatment cycle 4)?
Answer: The value was 75%.

Question: What about the “Maximum Reduction of MMP-9” value ([1]; patient B) of the same sequence?
Answer: The value was 75%.

Question: What about the “decrease in MMP-9” value ([1]; patient C, at cycle 1) of the same sequence?
Answer: The value was 90%.

Question: What about the “reduction in MMP-9 levels” value ([1]; patient C, cycle 2) of the same sequence?
Answer: The value was 76%.

Question: And the “MMP-9 level in plasma, D27C1” value ([1]; patient C, elevated MMP-9 (baseline D1C1 155))?
Answer: Its value is 14.9 µg/L.

Question: And the “Maximum Reduction of MMP-9” value ([1]; patient C)?
Answer: The value was 90%.

Question: And the “decrease in MMP-9” value ([1]; patient D, at cycle 1)?
Answer: Its value is 34%.

Question: What about the “MMP-9 level in plasma, D27C1” value ([1]; patient D, elevated MMP-9 (baseline D1C1 130.2)) of the same sequence?
Answer: The value was 85.2 µg/L.

Question: And the “Maximum Reduction of MMP-9” value ([1]; patient D)?
Answer: The value was 34%.

Question: What about the “MMP-9 level in plasma, D27C2” value ([1]; patient E (baseline D1C1 57.5)) of the same sequence?
Answer: Its value is 60.1 µg/L.

Question: What about the “change in MMP-9 levels” value ([1]; patient E, after 3 cycles of treatment) of the same sequence?
Answer: Its value is “still no MMP-9 decrease”.

Question: What about the “MMP-9 level in plasma, D27C1” value ([1]; patient E, normal MMP-9 (baseline D1C1 57.5)) of the same sequence?
Answer: The value was 58 µg/L.

Question: And the “MMP-9 level in plasma, D27C1” value ([1]; patient F, normal MMP-9 (baseline D1C1 53.2))?
Answer: Its value is 73.1 µg/L.

Question: What about the “MMP-9 level in plasma, D27C2” value ([1]; patient G (baseline D1C1 33.9)) of the same sequence?
Answer: Its value is 189.6 µg/L.

Question: And the “MMP-9 level in plasma, D27C1” value ([1]; patient G, normal MMP-9 (baseline D1C1 33.9))?
Answer: Its value is 45.4 µg/L.

Question: What about the “MMP-9 level in plasma, D27C2” value ([1]; patient H (baseline D1C1 57.0)) of the same sequence?
Answer: The value was 65 µg/L.

Question: What about the “MMP-9 level in plasma, D27C1” value ([1]; patient H, normal MMP-9 (baseline D1C1 57.0)) of the same sequence?
Answer: The value was 44.0 µg/L.

Question: What about the “MMP-9 level in plasma, D27C1” value ([1]; patient I, normal MMP-9 (baseline D1C1 22.1)) of the same sequence?
Answer: The value was 18.8 µg/L.

Question: And the “change in MMP-9 levels” value ([1]; patients E and G, after 2 cycles of treatment)?
Answer: Its value is “no decrease in MMP-9 levels was observed”.

Question: And the “PDGFR phosphorylation induced by PDGF” value (PDGF receptor (PDGFR))?
Answer: The value was “inhibition”.
